Assay results from PubChem BioAssay AID1845204 (Molecular Pharmacology Branch, DTP, NCI, 2023).

Test system: HSSY-II tumor spheroid viability
Assay: Anticancer human tumor HSSY-II cell line growth inhibition;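 also: spheroids exposed to compounds for seven days before reading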;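 as to viability, T/C: percent of DMSO vehicle control viability so 100% = untreated level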
Settings: spheroids with HUVEC and MSC; for IC50: curve of first compound; for viability, T/C: stronger effect = lower value
How it was run: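 Complex tumor spheroids combined malignant cells with endothelial cells and mesenchymal stem cells. DNA-damaging drugs and DNA repair inhibitors were tested alone and in combination, at half-log dilutions down from clinical Cmax (top 10 microM if Cmax unknown), 0.25% DMSO final.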

[1] = second compound 0.003 µM, first compound 0.0316 µM
[2] = second compound 0.003 µM, first compound 0.1 µM
[3] = second compound 0.003 µM, first compound 0.316 µM
[4] = second compound 0.003 µM, first compound 1 µM
[5] = second compound 0.003 µM, first compound 3.16 µM
[6] = second compound 0.003 µM, first compound 10 µM

Cc1cc(C)c(CNC(=O)c2cc(-c3ccc(CN4CCOCC4)cc3)cc3c2cnn3C2CCCC2)c(=O)[nH]1 + CC[C@@]1(O)C(=O)OCc2c1cc1n(c2=O)Cc2cc3c(CN(C)C)c(O)ccc3nc2-1
IC50 (second compound 0.003 µM): > 10000 nM | IC50 (second compound 0.00949 µM): < 31.6 nM | IC50 (second compound 0.03 µM): < 31.6 nM | IC50 (second compound 0.0949 µM): < 31.6 nM | IC50 (second compound 0.3 µM): < 31.6 nM | viability, T/C [1]: 79.2% | viability, T/C [2]: 81% | viability, T/C [3]: 81.3% | viability, T/C [4]: 81.9% | viability, T/C [5]: 79.1% | viability, T/C [6]: 64% | viability, T/C (second compound 0.00949 µM, first compound 0.0316 µM): 39.4% | viability, T/C (second compound 0.00949 µM, first compound 0.1 µM): 40.1% | viability, T/C (second compound 0.00949 µM, first compound 0.316 µM): 42.9% | viability, T/C (second compound 0.00949 µM, first compound 1 µM): 47.4% | viability, T/C (second compound 0.00949 µM, first compound 3.16 µM): 38% | viability, T/C (second compound 0.00949 µM, first compound 10 µM): 49.7% | viability, T/C (second compound 0.03 µM, first compound 0.0316 µM): 6.06% | viability, T/C (second compound 0.03 µM, first compound 0.1 µM): 7.28% | viability, T/C (second compound 0.03 µM, first compound 0.316 µM): 7.77% | viability, T/C (second compound 0.03 µM, first compound 1 µM): 9.15% | viability, T/C (second compound 0.03 µM, first compound 3.16 µM): 9.78% | viability, T/C (second compound 0.03 µM, first compound 10 µM): 11.9% | viability, T/C (second compound 0.0949 µM, first compound 0.0316 µM): 6.68% | viability, T/C (second compound 0.0949 µM, first compound 0.1 µM): 11.9% | viability, T/C (second compound 0.0949 µM, first compound 0.316 µM): 7.28% | viability, T/C (second compound 0.0949 µM, first compound 1 µM): 7.31% | viability, T/C (second compound 0.0949 µM, first compound 3.16 µM): 8.02% | viability, T/C (second compound 0.0949 µM, first compound 10 µM): 9.19% | viability, T/C (second compound 0.3 µM, first compound 0.0316 µM): 4.56% | viability, T/C (second compound 0.3 µM, first compound 0.1 µM): 4.19% | viability, T/C (second compound 0.3 µM, first compound 0.316 µM): 4.75% | viability, T/C (second compound 0.3 µM, first compound 1 µM): 5.11% | viability, T/C (second compound 0.3 µM, first compound 3.16 µM): 6.37% | viability, T/C (second compound 0.3 µM, first compound 10 µM): 7.28%

COc1ccc([C@@H](O)c2cc(-c3ncnc4cc(N5CCOCC5)ccc34)c(F)cc2Cl)nn1 + COc1cc2c(cc1O)CCNC21CSC2c3c(OC(C)=O)c(C)c4c(c3C(COC1=O)N1C(O)C3Cc5cc(C)c(OC)c(O)c5C(C21)N3C)OCO4
IC50 (second compound 30 pM): 1670 nM | IC50 (second compound 94.9 pM): 686 nM | IC50 (second compound 0.0003 µM): < 31.6 nM | IC50 (second compound 0.000949 µM): < 31.6 nM | IC50 (second compound 0.003 µM): < 31.6 nM | viability, T/C (second compound 30 pM, first compound 0.0316 µM): 117% | viability, T/C (second compound 30 pM, first compound 0.1 µM): 114% | viability, T/C (second compound 30 pM, first compound 0.316 µM): 93.3% | viability, T/C (second compound 30 pM, first compound 1 µM): 67.1% | viability, T/C (second compound 30 pM, first compound 3.16 µM): 29.7% | viability, T/C (second compound 30 pM, first compound 10 µM): 6.65% | viability, T/C (second compound 94.9 pM, first compound 0.0316 µM): 101% | viability, T/C (second compound 94.9 pM, first compound 0.1 µM): 93.8% | viability, T/C (second compound 94.9 pM, first compound 0.316 µM): 75.6% | viability, T/C (second compound 94.9 pM, first compound 1 µM): 38.6% | viability, T/C (second compound 94.9 pM, first compound 3.16 µM): 7.08% | viability, T/C (second compound 94.9 pM, first compound 10 µM): 1.86% | viability, T/C (second compound 0.0003 µM, first compound 0.0316 µM): 16.7% | viability, T/C (second compound 0.0003 µM, first compound 0.1 µM): 10.5% | viability, T/C (second compound 0.0003 µM, first compound 0.316 µM): 7.96% | viability, T/C (second compound 0.0003 µM, first compound 1 µM): 3.36% | viability, T/C (second compound 0.0003 µM, first compound 3.16 µM): 0.77% | viability, T/C (second compound 0.0003 µM, first compound 10 µM): 0.17% | viability, T/C (second compound 0.000949 µM, first compound 0.0316 µM): 2.36% | viability, T/C (second compound 0.000949 µM, first compound 0.1 µM): 2.67% | viability, T/C (second compound 0.000949 µM, first compound 0.316 µM): 0.85% | viability, T/C (second compound 0.000949 µM, first compound 1 µM): 0.08% | viability, T/C (second compound 0.000949 µM, first compound 3.16 µM): 0.11% | viability, T/C (second compound 0.000949 µM, first compound 10 µM): 0.22% | viability, T/C [1]: 0.22% | viability, T/C [2]: 0.26% | viability, T/C [3]: 0.22% | viability, T/C [4]: 0.24% | viability, T/C [5]: 0.25% | viability, T/C [6]: 0.34%
